Each structure is given as a SMILES string.

Series [1] has as its target T1, σ1 receptor (Cavia porcellus, UniProt Q60492).
T1 construct: from tissue; host or cells: guinea pig brain without cerebellum (male Dunkin guinea pigs, Envigo)
As to the kind of experiment: σ1 receptor radioligand binding assay with (+)-[3H]pentazocine, guinea pig brain membranes. To be noted: mean of at least two experiments in duplicate, read-out: Ki ± SEM σ1. As for the experimental part: (§1) All of the procedures for the binding assays were previously described. σ1 and σ2 receptor binding assays were carried out according to the literature.[25] […] Incubations were stopped by addition of 1 mL of ice-cold buffer [50 mM TRIS (pH 8.0)], and then the suspension was filtered through GF/B presoaked in 0.3% polyethylenimine (PEI) for at least 60 min prior to use. The filters were washed twice with 1 mL of ice-cold buffer. […] Incubations were stopped by addition of 1 mL of ice-cold buffer [50 mM TRIS (pH 8.0)], and then the suspension was filtered through GF/B presoaked in 0.5% polyethylenimine (PEI) for at least 60 min prior to use. The filters were washed twice with 1 mL of ice-cold buffer. […] Scatchard parameters (Kd and Bmax) and apparent inhibition constants (Ki) were determined by nonlinear curve fitting using GraphPad Prism (version 5.0).[64]

The target in series [2] is T2, σ2 receptor (Rattus norvegicus, UniProt Q5U3Y7).
T2 construct: from tissue; host or cells: rat liver (Wistar Hannover rats, Envigo)
T2 sequence (Q5U3Y7 1-176): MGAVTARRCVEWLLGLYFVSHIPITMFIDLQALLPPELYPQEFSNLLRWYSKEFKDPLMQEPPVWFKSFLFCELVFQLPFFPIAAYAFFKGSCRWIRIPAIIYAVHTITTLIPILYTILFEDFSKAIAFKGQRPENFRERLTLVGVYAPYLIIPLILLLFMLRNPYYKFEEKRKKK
As to the kind of experiment: σ2 receptor radioligand binding assay with [3H]DTG, rat liver membranes. To be noted: for Ki: [3H]DTG with 1 μM (+)-pentazocine, rat liver membranes, mean of at least two experiments in duplicate, read-out: Ki ± SEM σ2. The procedure:
as §1

Series [3] is described as follows: Fluorescence spectroscopy and quantum yield measurements. Format: physicochemical. To be noted: CHCl3.
In series [4] the target is T3, σ1 receptor (Homo sapiens, UniProt Q99720).
T3 construct: expressed in transfected cells
As to the kind of experiment: Flow cytometry studies in MCF7σ1 cells. Format: cell-based. (Flow cytometry measures light scatter and fluorescence of single cells or particles in a stream.)

Series [5] has as its system MCF7 cells. As to the kind of experiment: Trypan blue assay. Format: cell-based, human. The following applies: conditions of confocal microscopy, data not shown.
In series [6] the test system is MCF7 cells. As to the kind of experiment: Live cell imaging in MCF7 cells. Format: cell-based, human. The following applies: live cell videos.
Series [7] in a line: RP-HPLC degradation study in PBS buffer. The format is physicochemical. The following applies: 37 °C, RP-HPLC over 24 h. The procedure:
page 12: Figure S10. RP-HPLC degradation study in buffer of compounds 19 (A) and 29 (B). Compounds were dissolved in a solution of PBS with 5% of DMSO. Then the solution was divided in 4 vials, one was used to study t0 and the other three were incubated at 37 °C for 2h, 6h and 24 h, respectively. […]

Series [8] addresses T4, σ2 receptor (Homo sapiens, UniProt Q5BJF2). As to the kind of experiment: Flow cytometry saturation binding assay in MCF7 cells. To be noted: σ1 masked by (+)-pentazocine.
Method: Similarly, 2 × 10^5 MCF7 cells/well were seeded in a 12-well plate and allowed to recover for 24 h at 37 °C.
At the end of the incubation periods, cells were washed twice with PBS, detached with 200 mL of Cell Dissociation Solution (Sigma Chemical Co.) for 10 min at 37 °C, centrifuged at 13000g for 5 min, and resuspended in 500 mL of PBS. The fluorescence was recorded using a Bio-Guava easyCyte 5 Flow Cytometry System (Millipore, Billerica, MA), with a 530 nm band-pass filter. For each analysis, 50000 events were collected and analyzed with the InCyte software (Millipore).
In series [9] the target is T4, σ2 receptor. As to the kind of experiment: Flow cytometry studies in MCF7 and MCF7KO cells. The format is cell-based. Also on record: This cell line was selected on the basis of its high σ2 receptor expression levels; endogenous in cells; host or cells: MCF7 (and MCF7KO, partial TMEM97 knockdown by shRNA). The following applies: for accumulation (mean fluorescence intensity) in MCF7 and MCF7KO cells: 10 nM-10 μM, 45 min, σ1 masked with 10 μM (+)-pentazocine; for signal in MCF7KO cells compared with MCF7 cells: flow cytometry, σ2 receptor partially silenced. As for the experimental part:
Subsequently, the cells were harvested by trypsinization and resuspended in 250 μL of FACS-PBS. The fluorescence intensity was measured by flow cytometry using a BD LSRFortessaTM X-20 cell analyzer (Becton Dickinson, Palo Alto, CA). For this, in total 20000 cells per sample were evaluated. The results were analyzed and quantified using BD FACSDivaTM software.

Series [10] concerns the target T4, σ2 receptor. As to the kind of experiment: Confocal microscopy, co-localization with σ2 receptor (TMEM97 ab) in fixed MCF7 cells. Format: cell-based. The following applies: 5 μM, 1 h. Also on record: This cell line was selected on the basis of its high σ2 receptor expression levels; endogenous in cells; host or cells: MCF7 (and MCF7KO, partial TMEM97 knockdown by shRNA). As for the experimental part:
Subsequently, the cells were treated with the indicated concentrations of 19 or 29 for 1 h at 37 °C. Then, the cells were washed once with PBS, harvested by trypsinization, and resuspended in 1 mL of PBS. Then, the cell preparation for confocal microscopy by using Cytospin was carried out as described by Koh et al.,[75] followed by cell fixation with 4% paraformaldehyde at room temperature for 30 min. For the staining of σ2 receptor expression, cells were permeabilized and blocked with 0.5% Triton X-100 and 1% BSA, respectively, in PBS for 30 min at room temperature followed by incubation of the primary TMEM97 antibody (diluted 1:200 in 1% BSA/0.3% Triton-PBS, Novusbio, catalog no. NBP1-30436) overnight at 4 °C in a wet chamber. The next day, the cells were washed three times with PBS and incubated with a 1:500 dilution of a secondary anti-rabbit AlexaFluor488-labeled antibody (Invitrogen, catalog no. A-11034) for 1 h at room temperature in a wet chamber. After being washed twice with PBS, the cells were incubated with a solution containing DAPI (2.5 μg/mL, D9542) for 15 min at room temperature, followed by three washes with PBS as well as ddH2O and embedding with Vectashield (Vectashield Antifade Mounting Media, Vector Laboratories, caalog no. H-1000-10). […]

Series [11] deals with T4, σ2 receptor. As to the kind of experiment: Spinning disk confocal microscopy on living MCF7 cells. The format is cell-based. Also on record: This cell line was selected on the basis of its high σ2 receptor expression levels; endogenous in cells; host or cells: MCF7 (and MCF7KO, partial TMEM97 knockdown by shRNA). To be noted: for subcellular localization in living MCF7 cells: 0.05 μM, 30 min; for mitochondrial localization upon co-treatment with nonfluorescent DTG: 20 μM DTG. As for the experimental part: MCF7 cells (2.4 × 10^4 cells/well) were seeded on IBIDI slides (coated with polymers, Science Services) and incubated at 37 °C with 5% CO2 for 48 h. Afterward, ProlongLife (Invitrogen, catalog no. P36974) was added in a 1:100 dilution to the cells and incubated for 1 h. Subsequently, the medium was removed, and the cells were stained with 250 nM MitoTracker-Bodipy FL (Invitrogen, catalog no. P36974) in phenol red-free medium for 30 min at 37 °C with 5% CO2. […] In addition, Hoechst 33342 (0.05 μM) was added 15 min prior to measurement to counterstain for nuclei. Finally, z-stacks of the living cells were performed using an Olympus IXplore SpinSR spinning disk confocal microscope. In total, three pictures per spot were obtained. The Cy-5 intensities of the ligands based on the localization of the GFP- signal of the mitochondria were calculated by the commercially available software cellSens from Olympus. Statistical analysis was performed using GraphPad Prism (version 8).

The mark [12] stands for this setting: DTG (20 μM) as non-fluorescent σ2 reference ligand.
Where [13] appears, read: compound 2 (10 μM) as non-fluorescent σ2 reference ligand.

T4 sequence (Q5BJF2 whole entry): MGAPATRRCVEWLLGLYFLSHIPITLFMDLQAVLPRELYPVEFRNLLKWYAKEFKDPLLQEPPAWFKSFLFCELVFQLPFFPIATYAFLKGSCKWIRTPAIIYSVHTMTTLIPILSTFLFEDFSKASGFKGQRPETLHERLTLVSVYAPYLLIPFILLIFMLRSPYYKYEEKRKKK
T1 sequence (Q60492 whole entry): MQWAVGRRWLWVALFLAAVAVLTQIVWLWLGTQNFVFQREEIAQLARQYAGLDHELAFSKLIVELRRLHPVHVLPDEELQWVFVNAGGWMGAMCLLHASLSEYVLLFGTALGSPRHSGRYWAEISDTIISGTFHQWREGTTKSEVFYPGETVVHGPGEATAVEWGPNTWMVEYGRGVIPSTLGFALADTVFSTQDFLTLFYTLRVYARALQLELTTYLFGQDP
T3 sequence (Q99720 whole entry, species assumed): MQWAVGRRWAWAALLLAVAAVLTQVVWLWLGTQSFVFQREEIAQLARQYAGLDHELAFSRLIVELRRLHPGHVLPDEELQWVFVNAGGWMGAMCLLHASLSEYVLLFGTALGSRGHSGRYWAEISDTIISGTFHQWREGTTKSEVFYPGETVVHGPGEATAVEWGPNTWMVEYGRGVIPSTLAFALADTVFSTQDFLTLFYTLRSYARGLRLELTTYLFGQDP

As for `C[N+]1=C(/C=C/C=C/C=C2\N(CCCCCC(=O)NCCCCCCn3cc(CCCCN4CCC5(CC4)OCc4ccccc45)c4ccccc43)c3ccccc3C2(C)C)C(C)(C)c2ccccc21.[I-]` [Compound 19, 2-{(1E,3E)-5-[(E)-1-{6-[(6-{3-[4-(3H-Spiro[isobenzofuran-1,4′-piperidin]-1′-yl)butyl]-1H-indol-1-yl}hexyl)amino]-6-oxohexyl}-3,3-dimethylindolin-2-ylidene]penta-1,3-dien-1-yl}-1,3,3-trimethyl-3H-indol-1-ium], at σ1 receptor [1], the Ki is 51.3 ± 3.2 nM. In addition, at σ2 receptor [2], the inhibition constant (Ki) came to 30.2 ± 3.5 nM. Moreover, in series [3], the quantum yield worked out at 52.86%, the λem worked out at 678 nm and the λex was found to be 657 nm. Also, the “uptake in MCF7σ1 cells upon administration of (+)-pentazocine” value at σ1 receptor [4] (σ2 masked with 2 (10 μM), (+)-pentazocine 10 μM) is given as “abated”. In addition, on σ1 receptor [4] (σ2 receptor masked with 10 μM compound 2), the “fluorescent signal in MCF7σ1 cells” value is on record as “dose-dependent increase”. In addition, the cytotoxicity result in the series with MCF7 cells [5] was “neither 19 nor 29 was cytotoxic”. Besides, the “entry into living MCF7 cells” value in the series on MCF7 cells [6] was “rapid entry”. Besides, in series [7], the stability entry was “stability of the two compounds was demonstrated”. At σ2 receptor [8] (setting [12]), this molecule registered a Kd of 13.6 nM. Moreover, at σ2 receptor [8] (setting [13]), the Kd stood at 19.3 nM. At σ2 receptor [9], the “accumulation (mean fluorescence intensity) in MCF7 and MCF7KO cells” value is listed as “dose-dependent manner”; the “signal in MCF7KO cells compared with MCF7 cells” value is recorded as “visibly weaker”. Besides, the “subcellular localization versus σ2 receptor distribution (TMEM97ab)” value at σ2 receptor [10] is “overlapped with the σ2 receptor distribution”. In addition, at σ2 receptor [11], the “subcellular localization in living MCF7 cells” value is “mitochondrial localization” and the “mitochondrial localization upon co-treatment with nonfluorescent DTG” value is reported as “significantly reduced”.
`C[N+]1=C(/C=C/C=C/C=C2/N(CCCCCC(=O)Nc3ccc4ccn(CCCCN5CCC6(CC5)OCc5ccccc56)c4c3)c3ccccc3C2(C)C)C(C)(C)c2ccccc21.[I-]` [Compound 29, 2-[(1E,3E)-5-{(Z)-1-[6-({1-[4-(3H-Spiro[isobenzofuran-1,4′-piperidin]-1′-yl)butyl]-1H-indol-6-yl}amino)-6-oxohexyl]-3,3-dimethylindolin-2-ylidene}penta-1,3-dien-1-yl]-1,3,3-trimethyl-3H-indol-1-ium]: the Ki on σ1 receptor [1] is 448 ± 80 nM. In addition, the Ki on σ2 receptor [2] turned out to be 51.1 ± 5.1 nM. The “σ2 selectivity over σ1” value on σ2 receptor [2] (from Ki values at σ1 and σ2) was around 10 fold. In series [3], this molecule registered a quantum yield of 47.83%, a λem of 678 nm and a λex of 657 nm. Also, in the series on MCF7 cells [5], the cytotoxicity result is on record as “neither 19 nor 29 was cytotoxic”. In the series on MCF7 cells [6], the “entry into living MCF7 cells” value is reported as “rapid entry”. For the same molecule, the stability result in [7] is recorded as “stability of the two compounds was demonstrated”. For the same molecule, the Kd at σ2 receptor [8] (setting [12]) came to 18.7 nM. In addition, the Kd at σ2 receptor [8] (setting [13]) was found to be 13.8 nM. In addition, on σ2 receptor [9], the “accumulation (mean fluorescence intensity) in MCF7 and MCF7KO cells” value is “dose-dependent manner”; the “signal in MCF7KO cells compared with MCF7 cells” value was “visibly weaker”. The “subcellular localization versus σ2 receptor distribution (TMEM97ab)” value at σ2 receptor [10] is given as “overlapped with the σ2 receptor distribution”. For the same molecule, at σ2 receptor [11], the “subcellular localization in living MCF7 cells” value is listed as “mitochondrial localization” and the “mitochondrial localization upon co-treatment with nonfluorescent DTG” value is “significantly reduced”.

One may read the Ki as the dissociation constant of the complex between target and ligand, obtained from inhibition or displacement. Usually Kd stands for the equilibrium constant for the complex coming apart.

Source of the values: PMC10041534, “Development of Fluorescent 4-[4-(3H-Spiro[isobenzofuran-1,4′-piperidin]-1′-yl)butyl]indolyl Derivatives as High-Affinity Probes to Enable the Study of σ Receptors via Fluorescence-Based Techniques” (Journal of Medicinal Chemistry, 2023).
